Measured values from the supplement of paper PMC11451515.

Columns and labels:
Conditions in all cases: 48 h
NOMO1 [1] = assay: AUC of viability dose-response curve (% viability x log10 dose units); higher = less sensitive
How it was run: (§1)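 In 1536-well plates, leukemia cells adapted to each medium (500 or 1000 cells/well) were exposed for 48 h at 37°C to library compounds in DMSO across 11 threefold doses, 47 μM down to 0.79 nM. Viability was read by CellTiter-Glo One luminescence and normalised per plate to DMSO and cell-free wells. A four-parameter log-logistic fit over log10 doses was integrated by trapezoidal rule. This yielded the area under the curve, with over-full-viability curves scaled and quality-control failures dropped.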

P12-Ichikawa [2] = assay: as above
How it was run: as §1

SEM cells [3] = assay: as above
How it was run: as §1

NOMO1 [4] = assay: cell viability relative to DMSO control; higher = less cytotoxic
How it was run: (§2)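 Before seeding, each leukemia line was adapted for at least four passages in each medium. NOMO1 or SEM cells (500 cells/well) and P12-Ichikawa cells (1000 cells/well) went into 1536-well plates at 5 μl, then received library compounds in DMSO by pin dosing across 11 threefold concentrations, 47 μM to 0.79 nM. Readout was CellTiter-Glo One luminescence after 48 h at 37°C, and viability is given as a per-plate percentage of DMSO wells, with cell-free wells as background.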

P12-Ichikawa [5] = assay: as above
How it was run: as §2

SEM cells [6] = assay: as above
How it was run: as §2

[7] = RPMI 5 mM glucose + 10% dialyzed FBS
[8] = HPLM + 10% dialyzed FBS, 0.000781 µM
[9] = HPLM + 10% dialyzed FBS, 0.00234 µM
[10] = HPLM + 10% dialyzed FBS, 0.00702 µM
[11] = HPLM + 10% dialyzed FBS, 0.0211 µM
[12] = HPLM + 10% dialyzed FBS, 0.0632 µM
[13] = HPLM + 10% dialyzed FBS, 0.19 µM
[14] = HPLM + 10% dialyzed FBS, 0.569 µM
[15] = HPLM + 10% dialyzed FBS, 1.71 µM
[16] = HPLM + 10% dialyzed FBS, 5.12 µM
[17] = HPLM + 10% dialyzed FBS, 15.4 µM
[18] = HPLM + 10% dialyzed FBS, 46.1 µM
[19] = RPMI 5 mM glucose + 10% FBS, 0.000781 µM
[20] = RPMI 5 mM glucose + 10% FBS, 0.00234 µM
[21] = RPMI 5 mM glucose + 10% FBS, 0.00702 µM
[22] = RPMI 5 mM glucose + 10% FBS, 0.0211 µM
[23] = RPMI 5 mM glucose + 10% FBS, 0.0632 µM
[24] = RPMI 5 mM glucose + 10% FBS, 0.19 µM
[25] = RPMI 5 mM glucose + 10% FBS, 0.569 µM
[26] = RPMI 5 mM glucose + 10% FBS, 1.71 µM
[27] = RPMI 5 mM glucose + 10% FBS, 5.12 µM
[28] = RPMI 5 mM glucose + 10% FBS, 15.4 µM
[29] = RPMI 5 mM glucose + 10% FBS, 46.1 µM
[30] = RPMI 5 mM glucose + 10% dialyzed FBS, 0.000781 µM
[31] = RPMI 5 mM glucose + 10% dialyzed FBS, 0.00234 µM
[32] = RPMI 5 mM glucose + 10% dialyzed FBS, 0.00702 µM
[33] = RPMI 5 mM glucose + 10% dialyzed FBS, 0.0211 µM
[34] = RPMI 5 mM glucose + 10% dialyzed FBS, 0.0632 µM
[35] = RPMI 5 mM glucose + 10% dialyzed FBS, 0.19 µM
[36] = RPMI 5 mM glucose + 10% dialyzed FBS, 0.569 µM
[37] = RPMI 5 mM glucose + 10% dialyzed FBS, 1.71 µM
[38] = RPMI 5 mM glucose + 10% dialyzed FBS, 5.12 µM
[39] = RPMI 5 mM glucose + 10% dialyzed FBS, 15.4 µM
[40] = RPMI 5 mM glucose + 10% dialyzed FBS, 46.1 µM

Compound: O=C(/C=C/c1ccc(/C=C/C(=O)Nc2ccc(C3=NCCN3)cc2)cc1)Nc1ccc(C2=NCCN2)cc1
- AUC of viability dose-response curve (NOMO1 [1]; HPLM + 10% dialyzed FBS): 456
- AUC of viability dose-response curve (NOMO1 [1]; RPMI 5 mM glucose + 10% FBS): 439
- AUC of viability dose-response curve (NOMO1 [1]; [7]): 464
- AUC of viability dose-response curve (P12-Ichikawa [2]; HPLM + 10% dialyzed FBS): 467
- AUC of viability dose-response curve (P12-Ichikawa [2]; RPMI 5 mM glucose + 10% FBS): 467
- AUC of viability dose-response curve (P12-Ichikawa [2]; [7]): 473
- AUC of viability dose-response curve (SEM cells [3]; HPLM + 10% dialyzed FBS): 460
- AUC of viability dose-response curve (SEM cells [3]; RPMI 5 mM glucose + 10% FBS): 448
- AUC of viability dose-response curve (SEM cells [3]; [7]): 459
- cell viability (NOMO1 [4]; [8]): 103%
- cell viability (NOMO1 [4]; [9]): 108%
- cell viability (NOMO1 [4]; [10]): 111%
- cell viability (NOMO1 [4]; [11]): 108%
- cell viability (NOMO1 [4]; [12]): 111%
- cell viability (NOMO1 [4]; [13]): 116%
- cell viability (NOMO1 [4]; [14]): 117%
- cell viability (NOMO1 [4]; [15]): 123%
- cell viability (NOMO1 [4]; [16]): 121%
- cell viability (NOMO1 [4]; [17]): 111%
- cell viability (NOMO1 [4]; [18]): 122%
- cell viability (NOMO1 [4]; [19]): 104%
- cell viability (NOMO1 [4]; [20]): 98.8%
- cell viability (NOMO1 [4]; [21]): 115%
- cell viability (NOMO1 [4]; [22]): 117%
- cell viability (NOMO1 [4]; [23]): 123%
- cell viability (NOMO1 [4]; [24]): 106%
- cell viability (NOMO1 [4]; [25]): 106%
- cell viability (NOMO1 [4]; [26]): 115%
- cell viability (NOMO1 [4]; [27]): 117%
- cell viability (NOMO1 [4]; [28]): 125%
- cell viability (NOMO1 [4]; [29]): 131%
- cell viability (NOMO1 [4]; [30]): 88.2%
- cell viability (NOMO1 [4]; [31]): 107%
- cell viability (NOMO1 [4]; [32]): 95.5%
- cell viability (NOMO1 [4]; [33]): 106%
- cell viability (NOMO1 [4]; [34]): 117%
- cell viability (NOMO1 [4]; [35]): 117%
- cell viability (NOMO1 [4]; [36]): 113%
- cell viability (NOMO1 [4]; [37]): 112%
- cell viability (NOMO1 [4]; [38]): 108%
- cell viability (NOMO1 [4]; [39]): 112%
- cell viability (NOMO1 [4]; [40]): 102%
- cell viability (P12-Ichikawa [5]; [8]): 98.7%
- cell viability (P12-Ichikawa [5]; [9]): 102%
- cell viability (P12-Ichikawa [5]; [10]): 111%
- cell viability (P12-Ichikawa [5]; [11]): 115%
- cell viability (P12-Ichikawa [5]; [12]): 117%
- cell viability (P12-Ichikawa [5]; [13]): 108%
- cell viability (P12-Ichikawa [5]; [14]): 117%
- cell viability (P12-Ichikawa [5]; [15]): 115%
- cell viability (P12-Ichikawa [5]; [16]): 119%
- cell viability (P12-Ichikawa [5]; [17]): 115%
- cell viability (P12-Ichikawa [5]; [18]): 108%
- cell viability (P12-Ichikawa [5]; [19]): 101%
- cell viability (P12-Ichikawa [5]; [20]): 104%
- cell viability (P12-Ichikawa [5]; [21]): 111%
- cell viability (P12-Ichikawa [5]; [22]): 111%
- cell viability (P12-Ichikawa [5]; [23]): 109%
- cell viability (P12-Ichikawa [5]; [24]): 119%
- cell viability (P12-Ichikawa [5]; [25]): 109%
- cell viability (P12-Ichikawa [5]; [26]): 106%
- cell viability (P12-Ichikawa [5]; [27]): 112%
- cell viability (P12-Ichikawa [5]; [28]): 107%
- cell viability (P12-Ichikawa [5]; [29]): 110%
- cell viability (P12-Ichikawa [5]; [30]): 91.3%
- cell viability (P12-Ichikawa [5]; [31]): 109%
- cell viability (P12-Ichikawa [5]; [32]): 107%
- cell viability (P12-Ichikawa [5]; [33]): 96.7%
- cell viability (P12-Ichikawa [5]; [34]): 104%
- cell viability (P12-Ichikawa [5]; [35]): 115%
- cell viability (P12-Ichikawa [5]; [36]): 105%
- cell viability (P12-Ichikawa [5]; [37]): 112%
- cell viability (P12-Ichikawa [5]; [38]): 109%
- cell viability (P12-Ichikawa [5]; [39]): 112%
- cell viability (P12-Ichikawa [5]; [40]): 100%
- cell viability (SEM cells [6]; [8]): 96.5%
- cell viability (SEM cells [6]; [9]): 103%
- cell viability (SEM cells [6]; [10]): 101%
- cell viability (SEM cells [6]; [11]): 115%
- cell viability (SEM cells [6]; [12]): 129%
- cell viability (SEM cells [6]; [13]): 118%
- cell viability (SEM cells [6]; [14]): 115%
- cell viability (SEM cells [6]; [15]): 117%
- cell viability (SEM cells [6]; [16]): 103%
- cell viability (SEM cells [6]; [17]): 103%
- cell viability (SEM cells [6]; [18]): 115%
- cell viability (SEM cells [6]; [19]): 93.6%
- cell viability (SEM cells [6]; [20]): 104%
- cell viability (SEM cells [6]; [21]): 95.5%
- cell viability (SEM cells [6]; [22]): 102%
- cell viability (SEM cells [6]; [23]): 109%
- cell viability (SEM cells [6]; [24]): 99.2%
- cell viability (SEM cells [6]; [25]): 110%
- cell viability (SEM cells [6]; [26]): 114%
- cell viability (SEM cells [6]; [27]): 93.5%
- cell viability (SEM cells [6]; [28]): 72.8%
- cell viability (SEM cells [6]; [29]): 52.3%
- cell viability (SEM cells [6]; [30]): 104%
- cell viability (SEM cells [6]; [31]): 120%
- cell viability (SEM cells [6]; [32]): 115%
- cell viability (SEM cells [6]; [33]): 114%
- cell viability (SEM cells [6]; [34]): 109%
- cell viability (SEM cells [6]; [35]): 113%
- cell viability (SEM cells [6]; [36]): 111%
- cell viability (SEM cells [6]; [37]): 120%
- cell viability (SEM cells [6]; [38]): 108%
- cell viability (SEM cells [6]; [39]): 97.7%
- cell viability (SEM cells [6]; [40]): 64.6%
